According to patent publication US5532233A, “Hetrazepine compounds which have useful pharmaceutical utility” (priority 1986, dated 1996):
Like-named read-outs stand apart in the source and are kept apart here.

Legend:
[1] = test system: PAF-induced aggregation of human thrombocytes; experiment: PAF-induced aggregation of human thrombocytes in vitro (inhibition of blood platelet aggregation); type: cell-based; conditions: read-out: IC50 value PAF
Procedure: The PAF-antagonistic activity of some compounds of formulae Ia and Ib was tested in vitro on the inhibition of blood platelet aggregation.
1. Tests in vitro: inhibition of blood platelet aggregation
The PAF-induced aggregation of human thrombocytes in vitro was used to determine the PAF antagonistic activity of substances. In order to obtain thrombocyte-rich plasma (TRP) blood is taken from an uncongested vein using a plastic syringe which contains 3.8% sodium citrate solution. The ratio of sodium citrate solution to blood is 1:9. After careful mixing the citrated blood is centrifuged for 20 minutes at 150×g (1200 rpm). The thrombocyte aggregation is measured using the method developed by Born and Cross (G. V. R. Born and M. J. Cross, J. Physiol. 168, 178 (1963)), with PAF being added to the TRP with constant stirring to initiate aggregation.
The test substance is added in a volume of 10 μl 2-3 minutes before aggregation is initiated. The solvent used is either distilled water, ethanol and/or dimethyl sulphoxide. Control mixtures are given corresponding volumes of these solvents. After the initial absorption has been recorded (2-3 minutes) aggregation is induced with PAF (5×10^-8 M).
The peak of the first aggregation wave is used in order to assess the effects of the substance. The PAF-induced maximum absorption rate (=maximum aggregation×100%) is tested at the same time in a parallel mixture (=control mixture in one of the channels of the 2-channel aggregometer) to each test mixture (second channel) and used as a 100% value. The aggregation value achieved under the influence of the test substance is […].
Each test substance is tested at concentrations of from 10^-3 to 10^-8 M with a random sampling scope of n=4 to determine any inhibitory activity on the PAF-induced thrombocyte aggregation. A concentration-activity curve is then drawn up from 3 concentrations and the IC50 is determined (concentration for a 50% inhibition of aggregation). With some compounds, only approximate tests for guidance are carried out.

benzodiazepine receptor = benzodiazepine receptor bonding test using [^3 H] flunitrazepam as radioligand (FNB); type: binding
PAF = conditions: PAF-antagonistic activity; Kornecki et al.; read-out: IC50 (concentration for a 50% inhibition of aggregation); cited from earlier work
[2] = test system: PAF-induced aggregation of human thrombocytes; conditions: PAF-antagonistic activity known from European Patent Application No. 176 927; read-out: IC50 (the concentration at which a 50% inhibition of aggregation is measured); cited from earlier work
[3] = inhibition of PAF-induced (5×10^-8 M) human thrombocyte aggregation, racemate tested unless otherwise noted
[4] = [^3 H] flunitrazepam, racemate tested unless otherwise noted, read-out: IC50 value FNB (flunitrazepam bonding test)
[5] = [^3 H] flunitrazepam as radioligand, read-out: value in the benzodiazepine receptor bonding test

Compound | IC50 ([1]; Homo sapiens) | IC50 (benzodiazepine receptor; [4]) | other results
Cc1nnc2n1-c1sc3c(c1C(c1ccccc1Cl)=NC2)CC(C(=O)N(C)CCO)CC3 (stereo not shown) [Example 38] | – | – | IC50 [1, 3]: 2700 nM
Cc1nnc2n1-c1sc3c(c1C(c1ccccc1Cl)=NC2)CC(C1=NC(C)(C)CN1)CC3 (stereo not shown) [Example 83] | – | – | IC50 [1, 3]: 900 nM
Cc1nnc2n1-c1sc3c(c1C(c1ccccc1Cl)=NC2)CC(C(=O)N1CCN(C)CC1)CC3 (stereo not shown) [Example 37] | 1800 nM | > 5000 nM | –
CC(=S)N1CCc2c(sc3c2C(c2ccccc2Cl)=NCc2nnc(C)n2-3)C1 [Example 25, 3-Thioacetyl-6-(2-chlorophenyl)-11-methyl-2,3,4,5-tetrahydro-8H-pyrido[4',3':4,5]thieno[3,2-f][1,2,4]triazolo[4,3-a][1,4]diazepine] | 1000 nM | 2300 nM | –
Cc1nnc2n1-c1sc3c(c1C(c1ccccc1Cl)=NC2)CC(CN1CCOCC1)CC3 (stereo not shown) [Example 21, 4-(N-Morpholinomethyl)-6-(2-chlorophenyl)-11-methyl-2,3,4,5-tetrahydro-8H-[1]benzothieno[3,2-f][1,2,4]triazolo[4,3-a][1,4]-diazepine] | 300 nM | > 5000 nM | –
Cc1nnc2n1-c1sc3c(c1C(c1ccccc1Cl)=NC2)CC(CN1CCOCC1)C3 (stereo not shown) [Example 66] | < 200 nM | 920 nM | –
CC(=O)OCC1Cc2sc3c(c2C1)C(c1ccccc1Cl)=NCc1nnc(C)n1-3 (stereo not shown) [Example 19, 3-Acetoxymethyl-5-(2-chlorophenyl)-10-methyl-3,4-dihydro-2H,7H-cyclopenta[4,5]thieno[3,2-f][1,2,4]triazolo[4,3-a][1,4]diazepine] | – | – | IC50 [1, 3]: 600 nM
Cc1cnc2n1-c1sc3c(c1C(c1ccccc1Cl)=NC2)CC(CO)CC3 (stereo not shown) [Example 64] | – | – | IC50 [1, 3]: 800 nM
Cc1nnc2n1-c1ccc(Cl)cc1C(c1ccccc1Cl)=NC2 [Triazolam, reference compound] | 9000 nM | 1.4 nM | IC50 (PAF): 9000 nM
CC(=O)NCC(=O)N1CCc2c(sc3c2C(c2ccccc2Cl)=NCc2nnc(C)n2-3)C1 [Example 86, 3-Acetylaminomethylcarbonyl-6-(2-chlorophenyl)-11-methyl-2,3,4,5-tetrahydro-8H-pyrido[4',3':4,5]thieno[3,2-f][1,2,4]triazolo[4,3-a][1,4]diazepine] | 1000 nM | > 5000 nM | –
Cc1nnc2n1-c1sc3c(c1C(c1ccccc1Cl)=NC2)CC(C(=O)NCC(=O)N1CCOCC1)C3 (stereo not shown) [Example 58] | 400 nM | 380 nM | –
CCN(CC)C(=O)C1CCc2sc3c(c2C1)C(c1ccccc1Cl)=NCc1ncc(C)n1-3 (stereo not shown) [Example 11] | 500 nM | 5000 nM | –
Cc1nnc2n1-c1sc3c(c1C(c1ccccc1Cl)=NC2)CC(CO)CC3 (stereo not shown) [Example 17, 4-(Hydroxymethyl)-6-(2-chlorophenyl)-11-methyl-2,3,4,5-tetrahydro-8H-[1]benzothieno[3,2-f][1,2]triazolo[4,3-a][1,4]diazepine] | 1800 nM | 1070 nM | –
CCN(CC)C(=O)C1CCc2sc3c(c2C1)C(c1ccccc1Cl)=NCc1nnc(C)n1-3 (stereo not shown) [Example 36] | 400 nM | > 5000 nM | –
Cc1nnc2n1-c1sc3c(c1C(c1ccccc1Cl)=NC2)CC(C1=NCCO1)CC3 (stereo not shown) [Example 79] | 2200 nM | 4800 nM | –
CCN(CC)C(=O)C1CCc2c(sc3c2C(c2ccccc2Cl)=NCc2nnc(C)n2-3)C1 (stereo not shown) [Example 35] | 3300 nM | > 5000 nM | –
OCC1Cc2sc3c(c2C1)C(c1ccccc1Cl)=NCc1nncn1-3 (stereo not shown) [Example 18, 3-(Hydroxymethyl)-5-(2-chlorophenyl)-3,4-dihydro-2H,7H-cyclopenta[4,5]thieno[3,2-f][1,2,4]triazolo[4,3-a][1,4]diazepine] | – | – | IC50 [1, 3]: 1300 nM
Cc1nnc2n1-c1sc3c(c1C(c1ccccc1Cl)=NC2)CCCC3 [Compound (A), 6-(2-chlorophenyl)-11-methyl-2,3,4,5-tetrahydro-8H-[1]benzothieno[3,2-f][1,2,4]triazolo[4,3-a][1,4]diazepine, reference compound] | < 2500 nM | 21 nM | IC50 (benzodiazepine receptor; [5]): 21 nM; IC50 [2]: 2500 nM
Cc1nnc2n1-c1ccc(Cl)cc1C(c1ccccc1)=NC2 [Alprazolam, reference compound] | 14000 nM | 5.5 nM | IC50 (PAF): 14000 nM
Cc1nnc2n1-c1sc3c(c1C(c1ccccc1Cl)=NC2)CC(C(=O)N1CCOCC1)C3 (stereo not shown) [Example 7, 3-(Morpholin-4-yl-carbonyl)-5-(2-chlorophenyl)-10-methyl-3,4-dihydro-2H,7H-cyclopenta[4,5]thieno[3,2-f][1,2,4]triazolo[4,3-a][1,4]diazepine] | 300 nM | 3600 nM | –
Cc1nnc2n1-c1sc3c(c1C(c1ccccc1Cl)=NC2)CC(C1=NCCN1)CC3 (stereo not shown) [Example 33, 4-[2-Imidazolin-2-yl]-6-(2-chlorophenyl)-2,3,4,5-tetrahydro-8H-[1]benzothieno[3,2-f][1,2,4]triazolo[4,3-a][1,4]diazepine] | – | – | IC50 [1, 3]: 2300 nM
Cc1nnc2n1-c1sc3c(c1C(c1ccccc1Cl)=NC2)CCC(C(=O)N1CCOCC1)C3 (stereo not shown) [Example 2, 3-(Morpholin-4-yl-carbonyl)-6-(2-chlorophenyl)-11-methyl-2,3,4,5-tetrahydro-8H-[1]benzothieno[3,2-f][1,2,4]triazolo[4,3-a][1,4]diazepine] | 2500 nM | > 5000 nM | –
CC(=O)OCC1Cc2sc3c(c2C1)C(c1ccccc1Cl)=NCc1nncn1-3 (stereo not shown) [Example 68] | – | – | IC50 [1, 3]: 400 nM
Cc1nnc2n1-c1sc3c(c1C(c1ccccc1Cl)=NC2)C(C(=O)N(C)C)CC3 (stereo not shown) [Example 46] | 4800 nM | 1460 nM | –
Cc1cnc2n1-c1sc3c(c1C(c1ccccc1Cl)=NC2)CC(C(=O)N1CCOCC1)CC3 (stereo not shown) [Example 10, 4-(Morpholin-4-yl-carbonyl)-6-(2-chlorophenyl)-11-methyl-2,3,4,5-tetrahydro-8H-[1]benzothieno[3,2-f]imidazo[1,2-a][1,4]diazepine] | – | – | IC50 [1, 3]: 300 nM
Cc1cnc2n1-c1sc3c(c1C(c1ccccc1Cl)=NC2)CC(Cn1cncn1)CC3 (stereo not shown) [Example 63] | 400 nM | > 5000 nM | –
Cc1nnc2n1-c1sc3c(c1C(c1ccccc1Cl)=NC2)CCNC3 [Compound (B), 6-(2-chlorophenyl)-11-methyl-2,3,4,5-tetrahydro-8-H-pyrido[4',3':4,5]thieno-[3,2-f][1,2,4]triazolo[4,3-a][1,4]diazepine, reference compound] | < 7000 nM | 35 nM | IC50 (benzodiazepine receptor; [5]): 35 nM; IC50 [2]: 10000 nM
CC(=O)OCC1CCc2sc3c(c2C1)C(c1ccccc1Cl)=NCc1nnc(C)n1-3 (stereo not shown) [Example 62] | 400 nM | 4600 nM | –
Cc1cnc2n1-c1sc3c(c1C(c1ccccc1Cl)=NC2)CC(CN1CCOCC1)C3 (stereo not shown) [Example 113] | < 200 nM | 3000 nM | –
Cc1nnc2n1-c1sc3c(c1C(c1ccccc1Cl)=NC2)CC(C(=O)N1CCOCC1)CC3 (stereo not shown) [Example 1, 4-(Morpholin-4-yl-carbonyl)-6-(2-chlorophenyl)-11-methyl-2,3,4,5-tetrahydro-8H-[1]benzothieno[3,2-f][1,2,4]triazolo[4,3-a][1,4]diazepine] | 500 nM | > 5000 nM | –
